These results are taken from patent US20130158043A1, “PAK INHIBITORS FOR THE TREATMENT OF CANCER” (AFRAXIS, INC., priority 2011, published 2013).

Holding throughout (assay): In vitro PAK inhibition assay (Z'-LYTE, SelectScreen Kinase Profiling)
What all share (type): biochemical

In one experiment the target is PAK3 (Homo sapiens, UniProt O75914). The method, then: (§1) Compounds are screened in 1% DMSO (final) in the well. For 10 point titrations, 3-fold serial dilutions are conducted. All Peptide/Kinase Mixtures are diluted to a 2× working concentration in the appropriate Kinase Buffer
The 2×PAK3/Ser/Thr 20 mixture is prepared in 50 mM HEPES pH 7.5, 0.01% BRIJ-35, 10 mM MgCl2, 1 mM EGTA.
(§2) Add the following solutions to a well in a 384-well plate: 2.5 μL of 4× Test Compound OR (100 nL 100× Test Compound plus 2.4 μL kinase buffer) • 5 μL of 2× Peptide/Kinase (PAK) Mixture • 2.5 μL of 4×ATP Solution • 2. Shake the plate for 30-seconds • 3. Incubate the PAK Kinase Reaction at room temperature for 60-minutes • 4. Add 5 μL of Development Reagent Solution to each well • 5. Shake the plate for 30-seconds • 6. Incubate the Development Reaction for 60-minutes • 7. Determine the fluorescence using a fluorescence plate reader • 8. Analyze the fluorescence data
(§3) SelectScreen® Kinase Profiling Service uses XLfit from IDBS.

The target in another experiment is PAK2 (PAK65) (Homo sapiens, UniProt Q13177). The method, then:
as §1
The 2×PAK2 (PAK65)/Ser/Thr 20 mixture is prepared in 50 mM HEPES pH 7.5, 0.01% BRIJ-35, 10 mM MgCl2, 1 mM EGTA. The final 10 μL Kinase Reaction consists of 0.29-6 ng PAK2 (PAK65) and 2 μM Ser/Thr 20 in 50 mM HEPES pH 7.5, 0.01% BRIJ-35, 10 mM MgCl2, 1 mM EGTA.
as §2, §3

For a further experiment, the target named is PAK-4 (Homo sapiens, UniProt O96013). To be noted: read-out: PAK4 IC50. The method, then:
as §1
The 2X PAK-4/Ser/Thr 20 mixture is prepared in 50 mM HEPES pH 7.5, 0.01% BRIJ-35, 10 mM MgCl2, 1 mM EGTA. The final 10 μL Kinase Reaction consists of 0.1-0.75 ng PAK-4 and 2 μM Ser/Thr 20 in 50 mM HEPES pH 7.5, 0.01% BRIJ-35, 10 mM MgCl2, 1 mM EGTA. After the 1 hour Kinase Reaction incubation, 5 μL of a 1:256 dilution of Development Reagent A is added.
as §2, with “Bar-coded Corning, low volume NBS, black 384-well plate (Corning Cat. #3676) • 1. Add the” for “Add the”
SelectScreen® Kinase Profiling Service uses XLfit from IDBS. The dose response curve is curve fit to model number 205 (sigmoidal dose-response model).

For a further experiment, the target named is PAK1 (Homo sapiens, UniProt Q13153). How it is done: as §1
The 2×PAK1/Ser/Thr 19 mixture is prepared in 50 mM HEPES pH 7.5, 0.01% BRIJ-35, 10 mM MgCl2, 1 mM EGTA.
as §2, §3

Chain of PAK3 (O75914 whole entry): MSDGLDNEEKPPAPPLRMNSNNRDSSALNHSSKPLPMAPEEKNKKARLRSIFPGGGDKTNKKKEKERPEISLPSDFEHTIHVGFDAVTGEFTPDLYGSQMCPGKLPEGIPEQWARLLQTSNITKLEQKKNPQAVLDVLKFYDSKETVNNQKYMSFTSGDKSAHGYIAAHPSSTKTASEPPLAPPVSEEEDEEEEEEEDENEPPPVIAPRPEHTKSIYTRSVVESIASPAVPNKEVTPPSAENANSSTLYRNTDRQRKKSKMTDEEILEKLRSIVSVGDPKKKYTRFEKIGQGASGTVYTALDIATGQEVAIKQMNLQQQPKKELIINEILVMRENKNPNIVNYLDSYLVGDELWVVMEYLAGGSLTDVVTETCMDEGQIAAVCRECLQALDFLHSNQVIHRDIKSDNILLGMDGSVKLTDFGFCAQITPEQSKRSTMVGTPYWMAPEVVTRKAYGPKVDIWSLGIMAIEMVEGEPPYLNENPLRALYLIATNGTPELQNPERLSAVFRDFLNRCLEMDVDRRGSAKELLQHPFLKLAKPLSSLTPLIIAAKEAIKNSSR
Chain of PAK1 (Q13153 whole entry): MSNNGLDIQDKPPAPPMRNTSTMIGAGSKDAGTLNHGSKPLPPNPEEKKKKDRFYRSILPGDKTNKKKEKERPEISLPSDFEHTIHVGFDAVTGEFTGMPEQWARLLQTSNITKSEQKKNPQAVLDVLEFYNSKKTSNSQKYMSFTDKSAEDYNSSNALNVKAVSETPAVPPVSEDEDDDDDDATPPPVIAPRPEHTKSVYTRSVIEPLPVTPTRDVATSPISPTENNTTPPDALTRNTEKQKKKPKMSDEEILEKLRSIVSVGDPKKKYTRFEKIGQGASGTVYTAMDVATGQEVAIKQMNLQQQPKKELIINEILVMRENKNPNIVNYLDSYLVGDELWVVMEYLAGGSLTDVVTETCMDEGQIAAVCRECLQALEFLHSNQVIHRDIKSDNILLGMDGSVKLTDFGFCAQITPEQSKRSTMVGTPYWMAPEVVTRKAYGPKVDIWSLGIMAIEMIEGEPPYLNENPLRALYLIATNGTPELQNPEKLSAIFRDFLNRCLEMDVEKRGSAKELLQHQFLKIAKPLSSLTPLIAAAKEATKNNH
Chain of PAK2 (PAK65) (Q13177 whole entry): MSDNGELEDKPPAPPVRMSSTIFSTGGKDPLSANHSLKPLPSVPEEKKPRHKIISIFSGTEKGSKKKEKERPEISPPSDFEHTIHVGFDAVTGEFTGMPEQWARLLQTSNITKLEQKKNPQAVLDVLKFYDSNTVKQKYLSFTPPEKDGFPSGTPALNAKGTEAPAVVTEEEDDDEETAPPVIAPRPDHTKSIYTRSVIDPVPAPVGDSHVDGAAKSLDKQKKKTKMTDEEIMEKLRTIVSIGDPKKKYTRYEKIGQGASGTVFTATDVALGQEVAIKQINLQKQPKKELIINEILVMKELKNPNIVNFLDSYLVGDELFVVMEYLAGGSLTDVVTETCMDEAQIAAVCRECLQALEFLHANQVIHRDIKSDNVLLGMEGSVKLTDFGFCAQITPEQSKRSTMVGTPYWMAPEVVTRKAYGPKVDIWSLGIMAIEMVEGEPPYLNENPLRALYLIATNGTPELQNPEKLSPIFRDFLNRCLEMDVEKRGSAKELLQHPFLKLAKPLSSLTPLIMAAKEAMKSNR
Chain of PAK-4 (O96013 whole entry): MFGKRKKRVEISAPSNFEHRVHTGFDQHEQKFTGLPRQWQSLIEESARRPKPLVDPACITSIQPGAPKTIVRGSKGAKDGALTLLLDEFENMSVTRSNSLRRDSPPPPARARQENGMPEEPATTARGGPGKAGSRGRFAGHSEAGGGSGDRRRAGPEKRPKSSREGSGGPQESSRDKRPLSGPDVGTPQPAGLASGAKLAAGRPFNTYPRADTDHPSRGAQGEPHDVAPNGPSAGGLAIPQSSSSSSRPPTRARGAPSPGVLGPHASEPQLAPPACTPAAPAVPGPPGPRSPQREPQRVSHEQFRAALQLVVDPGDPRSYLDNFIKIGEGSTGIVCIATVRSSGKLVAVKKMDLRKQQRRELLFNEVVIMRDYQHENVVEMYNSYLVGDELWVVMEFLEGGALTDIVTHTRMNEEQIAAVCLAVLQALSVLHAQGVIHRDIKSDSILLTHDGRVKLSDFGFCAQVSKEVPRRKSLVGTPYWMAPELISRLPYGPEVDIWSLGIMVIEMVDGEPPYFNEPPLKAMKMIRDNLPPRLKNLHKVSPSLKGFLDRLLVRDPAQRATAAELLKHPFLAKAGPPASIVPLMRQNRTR

As usually defined, the IC50 is the concentration at which inhibition is half-maximal. With `CCn1c(=O)c(-c2ccc(-c3nnco3)cc2Cl)cc2cnc(Nc3ccc(N4CCN(C)CC4)cc3)nc21`, the IC50 is less than 50 nM against PAK3, less than 50 nM at PAK2 (PAK65), 0.5 to 5 µM on PAK-4 and less than 50 nM at PAK1.

With `CCS(=O)(=O)c1ccccc1Cn1c(=O)ccc2cnc(Nc3ccc(N4CCN(C)CC4)cc3)nc21`, the IC50 at PAK3 lay within 500 to 5000 nM; against PAK2 (PAK65) it was 50 to 500 nM; on PAK-4, 0.5 to 5 µM; on PAK1, 50 to 500 nM.

For the molecule `CCn1c(=O)c(-c2ccc(S(C)(=O)=O)cc2)cc2cnc(Nc3ccc(N4CCN(C)CC4)cc3)nc21`, the IC50 on PAK3 was more than 5000 nM; against PAK2 (PAK65), more than 5000 nM; on PAK-4, not below 5 µM; at PAK1, more than 5000 nM.

In the case of `CC#Cc1cc2cnc(Nc3ccc(N4CCN(C)CC4)cc3)nc2n(Cc2c(F)cccc2C2CC2)c1=O`, the IC50 is 50 to 500 nM on PAK3, 50 to 500 nM against PAK2 (PAK65), 0.5 to 5 µM at PAK-4 and 50 to 500 nM on PAK1.

On to `CN1CCC(c2ccc(Nc3ncc4ccc(=O)n(Cc5c(F)cccc5C5CC5)c4n3)cc2)CC1`, for which the IC50 was 50 to 500 nM against PAK3, 50 to 500 nM at PAK2 (PAK65), 0.05 to 0.5 µM on PAK-4 and less than 50 nM on PAK1.

In the case of `CCn1c(=O)c(-c2cccc(S(C)(=O)=O)c2)cc2cnc(Nc3ccc(N4CCN(C)CC4)cc3)nc21`, the IC50 is 50 to 500 nM against PAK3, 500 to 5000 nM at PAK2 (PAK65), not below 5 µM at PAK-4 and 50 to 500 nM on PAK1.

Consider `CCS(=O)(=O)c1ccccc1Cn1c(=O)c(-c2ccccc2Cl)cc2cnc(Nc3ccc(N4CCN(C)CC4)cc3)nc21`, for which the IC50 against PAK3 is less than 50 nM; on PAK2 (PAK65) it was less than 50 nM; at PAK-4, 0.5 to 5 µM; on PAK1 it was less than 50 nM.

In the case of `CC#Cc1cc2cnc(Nc3ccc(N4CCN(C)CC4)cc3)nc2n(Cc2ccccc2C(F)(F)F)c1=O`, the concentration for half-maximal inhibition (IC50) against PAK3 is 500 to 5000 nM; against PAK2 (PAK65), 50 to 500 nM; at PAK-4, 0.5 to 5 µM; against PAK1, 50 to 500 nM.

For `CCn1c(=O)c(-c2ccc(-c3cccnc3F)cc2Cl)cc2cnc(Nc3ccc(N4CCN(C)CC4)cc3)nc21`, the IC50 is less than 50 nM against PAK3, less than 50 nM at PAK2 (PAK65), 0.05 to 0.5 µM at PAK-4 and less than 50 nM against PAK1.

As for `CCn1c(=O)c(-c2ccc(-c3cncs3)cc2Cl)cc2cnc(Nc3ccc(N4CCN(C)CC4)cc3)nc21`, at PAK-4, the IC50 is not below 5 µM.

Regarding `CCn1c(=O)c(-c2ccc(-c3noc(C)n3)cc2Cl)cc2cnc(Nc3ccc(C4CCN(C)CC4)cc3)nc21`, the IC50 on PAK3 was less than 50 nM; at PAK2 (PAK65), less than 50 nM; on PAK-4 it was 0.5 to 5 µM; at PAK1 it was less than 50 nM.

In the case of `CCn1c(=O)c(-c2ccc(-c3ccnc(C(N)=O)c3)cc2Cl)cc2cnc(Nc3ccc(C4CCN(C)CC4)cc3)nc21`, the IC50 against PAK3 is 50 to 500 nM; on PAK2 (PAK65) it was 50 to 500 nM; at PAK-4 it was not below 5 µM; on PAK1, 50 to 500 nM.

In the case of `CCn1c(=O)c(-c2ccc(-c3noc(C)n3)cc2Cl)cc2cnc(Nc3ccc(C4CCNCC4)cc3)nc21`, the IC50 is 50 to 500 nM against PAK3, less than 50 nM against PAK2 (PAK65), 0.5 to 5 µM at PAK-4 and less than 50 nM against PAK1.

For the molecule `CCn1c(=O)c(-c2ccc(-c3cnc(C)s3)cc2Cl)cc2cnc(Nc3ccc(C4CCN(C)CC4)cc3)nc21`, the IC50 at PAK3 is less than 50 nM; against PAK2 (PAK65), less than 50 nM; at PAK-4, 0.5 to 5 µM; against PAK1, less than 50 nM.

Turning to `CCN1CCC(c2ccc(Nc3ncc4cc(-c5ccc(-c6cccnc6C)cc5Cl)c(=O)n(CC)c4n3)cc2)CC1`, the IC50 against PAK3 is less than 50 nM; against PAK2 (PAK65), less than 50 nM; at PAK-4 it was not below 5 µM; against PAK1 it was less than 50 nM.

For the molecule `CCN1CCC(c2ccc(Nc3ncc4cc(-c5ccc(-c6ccc(C)nc6)cc5Cl)c(=O)n(CC)c4n3)cc2)CC1`, the IC50 was less than 50 nM on PAK3, less than 50 nM against PAK2 (PAK65), 0.5 to 5 µM on PAK-4 and less than 50 nM at PAK1.
